Test results taken from ChEMBL document CHEMBL1275409, “Antimicrobial-resistant pathogens in intensive care units in Canada: results of the Canadian National Intensive Care Unit (CAN-ICU) study, 2005-2006” (2008).

Columns and labels:
Type in all cases: functional
[1] = tested on: Staphylococcus aureus; test: Antimicrobial activity against methicillin-resistant Staphylococcus aureus isolated from ICU patient respiratory tract assessed as resistant isolates by broth microdilution method
[2] = tested on: Staphylococcus aureus; test: Antimicrobial activity against methicillin-resistant Staphylococcus aureus isolated from ICU patient wound assessed as resistant isolates by broth microdilution method
[3] = tested on: Staphylococcus aureus; test: Antimicrobial activity against methicillin-resistant Staphylococcus aureus isolated from ICU patient urine assessed as resistant isolates by broth microdilution method
[4] = tested on: Staphylococcus aureus; test: Antimicrobial activity against methicillin-resistant Staphylococcus aureus isolated from ICU patient blood assessed as resistant isolates by broth microdilution method
[5] = tested on: Staphylococcus aureus; test: Antimicrobial activity against methicillin-resistant Staphylococcus aureus assessed as resistant isolates by broth microdilution method
[6] = tested on: Staphylococcus aureus; test: Antimicrobial activity against methicillin-susceptible Staphylococcus aureus isolated from ICU patient respiratory tract assessed as resistant isolates by broth microdilution method
[7] = tested on: Staphylococcus aureus; test: Antimicrobial activity against methicillin-susceptible Staphylococcus aureus isolated from ICU patient wound assessed as resistant isolates by broth microdilution method
[8] = tested on: Staphylococcus aureus; test: Antimicrobial activity against methicillin-susceptible Staphylococcus aureus isolated from ICU patient urine assessed as resistant isolates by broth microdilution method
[9] = tested on: Staphylococcus aureus; test: Antimicrobial activity against methicillin-susceptible Staphylococcus aureus isolated from ICU patient blood assessed as resistant isolates by broth microdilution method
[10] = tested on: Staphylococcus aureus; test: Antimicrobial activity against methicillin-susceptible Staphylococcus aureus assessed as resistant isolates by broth microdilution method
[11] = tested on: Enterococcus sp.; test: Antimicrobial activity against vancomycin-resistant Enterococcus sp. isolated from ICU patient respiratory tract assessed as resistant isolates by broth microdilution method
[12] = tested on: Enterococcus sp.; test: Antimicrobial activity against vancomycin-resistant Enterococcus sp. isolated from ICU patient wound assessed as resistant isolates by broth microdilution method
[13] = tested on: Enterococcus sp.; test: Antimicrobial activity against vancomycin-resistant Enterococcus sp. isolated from ICU patient urine assessed as resistant isolates by broth microdilution method
[14] = tested on: Enterococcus sp.; test: Antimicrobial activity against vancomycin-resistant Enterococcus sp. assessed as resistant isolates by broth microdilution method
[15] = tested on: Enterococcus sp.; test: Antimicrobial activity against vancomycin-resistant Enterococcus sp. isolated from ICU patient blood assessed as resistant isolates by broth microdilution method
[16] = tested on: Staphylococcus epidermidis; test: Antimicrobial activity against methicillin-resistant Staphylococcus epidermidis isolated from ICU patient wound assessed as resistant isolates by broth microdilution method
[17] = tested on: Staphylococcus epidermidis; test: Antimicrobial activity against methicillin-resistant Staphylococcus epidermidis isolated from ICU patient urine assessed as resistant isolates by broth microdilution method
[18] = tested on: Staphylococcus epidermidis; test: Antimicrobial activity against methicillin-resistant Staphylococcus epidermidis isolated from ICU patient blood assessed as resistant isolates by broth microdilution method
[19] = tested on: Staphylococcus epidermidis; test: Antimicrobial activity against methicillin-resistant Staphylococcus epidermidis assessed as resistant isolates by broth microdilution method
[20] = tested on: Staphylococcus epidermidis; test: Antimicrobial activity against methicillin-susceptible Staphylococcus epidermidis isolated from ICU patient wound assessed as resistant isolates by broth microdilution method
[21] = tested on: Staphylococcus epidermidis; test: Antimicrobial activity against methicillin-susceptible Staphylococcus epidermidis isolated from ICU patient urine assessed as resistant isolates by broth microdilution method
[22] = tested on: Staphylococcus epidermidis; test: Antimicrobial activity against methicillin-susceptible Staphylococcus epidermidis isolated from ICU patient blood assessed as resistant isolates by broth microdilution method
[23] = tested on: Staphylococcus epidermidis; test: Antimicrobial activity against methicillin-susceptible Staphylococcus epidermidis assessed as resistant isolates by broth microdilution method
[24] = tested on: Pseudomonas aeruginosa; test: Antimicrobial activity against carbapenem-resistant Pseudomonas aeruginosa isolated from ICU patient respiratory tract assessed as resistant isolates by broth microdilution method
[25] = tested on: Pseudomonas aeruginosa; test: Antimicrobial activity against carbapenem-resistant Pseudomonas aeruginosa isolated from ICU patient wound assessed as resistant isolates by broth microdilution method
[26] = tested on: Pseudomonas aeruginosa; test: Antimicrobial activity against carbapenem-resistant Pseudomonas aeruginosa isolated from ICU patient urine assessed as resistant isolates by broth microdilution method
[27] = tested on: Pseudomonas aeruginosa; test: Antimicrobial activity against carbapenem-resistant Pseudomonas aeruginosa isolated from ICU patient blood assessed as resistant isolates by broth microdilution method
[28] = tested on: Pseudomonas aeruginosa; test: Antimicrobial activity against carbapenem-resistant Pseudomonas aeruginosa assessed as resistant isolates by broth microdilution method
[29] = tested on: Escherichia coli; test: Antimicrobial activity against CTX-M ESBL producing Escherichia coli isolated from ICU patient respiratory tract assessed as resistant isolates by broth microdilution method
[30] = tested on: Escherichia coli; test: Antimicrobial activity against CTX-M ESBL producing Escherichia coli isolated from ICU patient wound assessed as resistant isolates by broth microdilution method
[31] = tested on: Escherichia coli; test: Antimicrobial activity against CTX-M ESBL producing Escherichia coli isolated from ICU patient urine assessed as resistant isolates by broth microdilution method
[32] = tested on: Escherichia coli; test: Antimicrobial activity against CTX-M ESBL producing Escherichia coli isolated from ICU patient blood assessed as resistant isolates by broth microdilution method
[33] = tested on: Escherichia coli; test: Antimicrobial activity against CTX-M ESBL producing Escherichia coli assessed as resistant isolates by broth microdilution method
[34] = tested on: Staphylococcus epidermidis; test: Antimicrobial activity against methicillin-susceptible Staphylococcus epidermidis isolated from ICU patient respiratory tract assessed as resistant isolates by broth microdilution method
[35] = tested on: Streptococcus pneumoniae; test: Antimicrobial activity against penicillin-resistant Streptococcus pneumoniae isolated from ICU patient respiratory tract assessed as resistant isolates by broth microdilution method
[36] = tested on: Streptococcus pneumoniae; test: Antimicrobial activity against penicillin-resistant Streptococcus pneumoniae isolated from ICU patient wound assessed as resistant isolates by broth microdilution method
[37] = tested on: Streptococcus pneumoniae; test: Antimicrobial activity against penicillin-resistant Streptococcus pneumoniae isolated from ICU patient blood assessed as resistant isolates by broth microdilution method
[38] = tested on: Streptococcus pneumoniae; test: Antimicrobial activity against penicillin-resistant Streptococcus pneumoniae assessed as resistant isolates by broth microdilution method

Structure (SMILES)	Activity [1] [%]	Activity [2] [%]	Activity [3] [%]	Activity [4] [%]	Activity [5] [%]	Activity [6] [%]	Activity [7] [%]	Activity [8] [%]	Activity [9] [%]	Activity [10] [%]	Activity [16] [%]	Activity [17] [%]	Activity [18] [%]	Activity [19] [%]	Activity [20] [%]	Activity [21] [%]	Activity [22] [%]	Activity [23] [%]	Activity [35] [%]	Activity [36] [%]	also measured
CCCCCCCCCC(=O)N[C@@H](Cc1c[nH]c2ccccc12)C(=O)N[C@H](CC(N)=O)C(=O)N[C@@H](CC(=O)O)C(=O)N[C@@H]1C(=O)NCC(=O)N[C@@H](CCCN)C(=O)N[C@@H](CC(=O)O)C(=O)N[C@H](C)C(=O)N[C@@H](CC(=O)O)C(=O)NCC(=O)N[C@H](CO)C(=O)N[C@@H]([C@H](C)CC(=O)O)C(=O)N[C@@H](CC(=O)c2ccccc2N)C(=O)O[C@@H]1C	0	0	0	0	0	0	0	0	0	0	0	0	0	0	0	0	0	0			Activity [11]: 0%; Activity [12]: 0%; Activity [13]: 0%; Activity [14]: 0%; Activity [15]: 0%
Cc1nnc(SCC2=C(C(=O)O)N3C(=O)[C@@H](NC(=O)Cn4cnnn4)[C@H]3SC2)s1 [CEFAZOLIN]	100	100	100	100	100	0	0	0	0	0	100	100	100	100	0	0	0	0			Activity [24]: 4.9%; Activity [25]: 7.7%; Activity [26]: 7.8%; Activity [27]: 7.7%; Activity [28]: 6.2%; Activity [29]: 11.5%; Activity [30]: 8.6%; Activity [31]: 25.8%; Activity [32]: 21.9%; Activity [33]: 20.1%; Activity [34]: 0%
CCC[C@@H]1C[C@@H](C(=O)N[C@@H]([C@H]2O[C@H](SC)[C@H](O)[C@@H](O)[C@H]2O)[C@H](C)Cl)N(C)C1 [CLINDAMYCIN]	72.9	81.5	100	79.6	76.1	4.3	3.5	10	4.6	4.4	88.2	100	100	92	70.8	100	43.6	54.8	6.4	0	Activity [37]: 2.6%; Activity [38]: 5.6%
COc1c(N2C[C@@H]3CCCN[C@@H]3C2)c(F)cc2c(=O)c(C(=O)O)cn(C3CC3)c12 [MOXIFLOXACIN]	91.5	88.9	100	89.8	90.1	5.8	7.1	15	6.9	6.4	100	100	83.3	96	50	80	34.6	41.7	1.6	0	Activity [37]: 0%; Activity [38]: 1.3%
